Results published in ChEMBL document CHEMBL1154997, “Inhibitors of dipeptidyl peptidase 8 and dipeptidyl peptidase 9. Part 1: identification of dipeptide derived leads” (Bioorg Med Chem Lett, 2008).

How the values were obtained:
[1] = molecular target: Dipeptidyl peptidase 4 (Homo sapiens, UniProt P27487)
[2] = molecular target: Dipeptidyl peptidase 2 (Homo sapiens, UniProt Q9UHL4)
[3] = molecular target: Dipeptidyl peptidase 9 (Homo sapiens, UniProt Q86TI2)
[4] = molecular target: Dipeptidyl peptidase 8 (Homo sapiens, UniProt Q6V1X1)
Dipeptidyl peptidase 8, sequence (Q6V1X1 whole entry): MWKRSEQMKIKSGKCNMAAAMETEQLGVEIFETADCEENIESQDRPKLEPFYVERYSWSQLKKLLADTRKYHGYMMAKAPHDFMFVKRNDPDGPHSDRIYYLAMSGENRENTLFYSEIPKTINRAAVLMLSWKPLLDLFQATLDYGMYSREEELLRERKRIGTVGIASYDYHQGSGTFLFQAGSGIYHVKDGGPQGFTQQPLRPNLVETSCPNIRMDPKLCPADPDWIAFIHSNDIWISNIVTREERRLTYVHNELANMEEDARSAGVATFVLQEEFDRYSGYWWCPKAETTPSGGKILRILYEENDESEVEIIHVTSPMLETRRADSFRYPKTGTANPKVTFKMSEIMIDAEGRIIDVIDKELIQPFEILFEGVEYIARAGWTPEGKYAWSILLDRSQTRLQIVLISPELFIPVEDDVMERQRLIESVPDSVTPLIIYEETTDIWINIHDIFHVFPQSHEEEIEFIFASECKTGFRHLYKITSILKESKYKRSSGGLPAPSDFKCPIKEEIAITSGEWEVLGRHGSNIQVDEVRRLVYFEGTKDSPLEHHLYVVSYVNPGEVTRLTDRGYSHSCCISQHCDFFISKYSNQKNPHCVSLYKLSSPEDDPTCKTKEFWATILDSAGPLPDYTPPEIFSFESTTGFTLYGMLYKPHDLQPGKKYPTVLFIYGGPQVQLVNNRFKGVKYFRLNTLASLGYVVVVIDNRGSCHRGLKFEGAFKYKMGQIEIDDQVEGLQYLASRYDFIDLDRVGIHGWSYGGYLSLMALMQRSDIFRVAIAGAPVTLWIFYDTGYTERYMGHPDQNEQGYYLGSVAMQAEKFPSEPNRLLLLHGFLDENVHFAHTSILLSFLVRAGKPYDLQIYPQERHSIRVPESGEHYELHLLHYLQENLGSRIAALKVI

Dipeptidyl peptidase 9, sequence (Q86TI2 whole entry): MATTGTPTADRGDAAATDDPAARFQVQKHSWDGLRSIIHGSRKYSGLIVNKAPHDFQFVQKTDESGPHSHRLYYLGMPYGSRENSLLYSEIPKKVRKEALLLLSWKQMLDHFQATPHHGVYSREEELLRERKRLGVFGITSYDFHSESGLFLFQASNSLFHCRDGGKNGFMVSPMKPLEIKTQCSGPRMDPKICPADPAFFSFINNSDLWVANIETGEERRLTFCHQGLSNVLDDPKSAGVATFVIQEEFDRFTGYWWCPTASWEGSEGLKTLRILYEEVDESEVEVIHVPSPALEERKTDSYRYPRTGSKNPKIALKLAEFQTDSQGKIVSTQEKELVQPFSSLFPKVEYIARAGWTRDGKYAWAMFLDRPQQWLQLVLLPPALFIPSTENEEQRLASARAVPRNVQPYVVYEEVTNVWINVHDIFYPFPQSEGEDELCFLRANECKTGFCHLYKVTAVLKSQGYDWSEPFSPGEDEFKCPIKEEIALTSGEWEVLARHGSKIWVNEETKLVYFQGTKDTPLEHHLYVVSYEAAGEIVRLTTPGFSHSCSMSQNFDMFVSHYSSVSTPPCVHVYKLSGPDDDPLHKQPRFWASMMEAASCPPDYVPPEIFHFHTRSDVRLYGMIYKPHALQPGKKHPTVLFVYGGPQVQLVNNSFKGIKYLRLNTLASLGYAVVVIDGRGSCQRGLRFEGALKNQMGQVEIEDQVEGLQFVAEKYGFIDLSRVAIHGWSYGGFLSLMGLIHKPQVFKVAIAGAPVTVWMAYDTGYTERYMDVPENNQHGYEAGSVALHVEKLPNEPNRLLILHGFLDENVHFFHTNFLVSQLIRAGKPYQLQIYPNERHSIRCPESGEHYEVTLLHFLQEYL
Dipeptidyl peptidase 4, sequence (P27487 whole entry): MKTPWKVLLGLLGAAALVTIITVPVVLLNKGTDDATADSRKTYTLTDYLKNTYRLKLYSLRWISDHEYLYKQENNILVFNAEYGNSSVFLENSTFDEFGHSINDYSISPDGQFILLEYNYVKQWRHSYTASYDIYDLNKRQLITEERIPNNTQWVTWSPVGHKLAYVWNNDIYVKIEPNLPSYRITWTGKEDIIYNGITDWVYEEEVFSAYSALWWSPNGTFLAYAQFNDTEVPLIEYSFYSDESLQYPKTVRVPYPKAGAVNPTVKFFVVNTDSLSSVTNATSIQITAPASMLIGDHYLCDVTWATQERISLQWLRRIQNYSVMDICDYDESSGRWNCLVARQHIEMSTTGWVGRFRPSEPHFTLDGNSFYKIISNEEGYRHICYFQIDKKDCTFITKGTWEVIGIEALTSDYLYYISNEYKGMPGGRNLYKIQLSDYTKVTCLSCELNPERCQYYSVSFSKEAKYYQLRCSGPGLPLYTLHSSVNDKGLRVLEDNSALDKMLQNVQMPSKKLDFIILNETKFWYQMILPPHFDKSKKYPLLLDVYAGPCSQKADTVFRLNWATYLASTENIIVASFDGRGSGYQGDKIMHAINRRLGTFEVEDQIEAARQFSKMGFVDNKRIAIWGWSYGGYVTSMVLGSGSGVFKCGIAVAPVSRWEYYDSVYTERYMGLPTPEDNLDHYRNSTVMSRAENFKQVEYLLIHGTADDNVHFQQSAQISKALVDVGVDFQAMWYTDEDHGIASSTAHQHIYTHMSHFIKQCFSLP

| SMILES | IC50 [1] [µM] | IC50 [2] [µM] | IC50 [3] [µM] | IC50 [4] [µM] | Ki [2] [nM] |
| --- | --- | --- | --- | --- | --- |
| CC(C)[C@H](N)C(=O)N1CCCC1 |  | 153 |  |  |  |
| N[C@@H](Cc1c[nH]c2ccccc12)C(=O)N1CCCC1 | 286 | 49 | > 100 | 242 |  |
| CC[C@H](C)[C@H](N)C(=O)N1CCC1 | 50.4 | 730 | > 100 | 127 |  |
| NCCC[C@H](N)C(=O)N1CCCC1 | 118 | 9.8 |  |  |  |
| NCCCC[C@H](N)C(=O)N1CCSC1 | 23 | 2.9 |  |  |  |
| N[C@@H](CS)C(=O)N1CCCC1 | 37 | 19 |  |  |  |
| NCCCC[C@H](N)C(=O)N1CCC(O)C1 (stereo partly specified) | 500 | 48 |  | 139 |  |
| N#C[C@@H]1C[C@H](N=[N+]=[N-])CN1C(=O)[C@@H](N)CCCCNc1ccc2ccccc2c1 | 0.56 | 0.034 |  |  |  |
| N#C[C@@H]1CCCCN1C(=O)[C@@H](N)CCCCN | 51 | 1.5 |  |  |  |
| N=C(N)NCCC[C@H](N)C(=O)N1CCCC1 | 12.7 | 3.1 |  |  |  |
| N[C@@H](CCC(=O)O)C(=O)N1CCCC1 | > 1000 | > 1000 | > 100 | > 1000 |  |
| N[C@@H](CCCCNC(=O)OCc1ccccc1)C(=O)N1CCCC1 | 15.6 | 5.7 |  |  |  |
| C[C@H](N)C(=O)N1CCCC1 |  |  |  | 411 |  |
| NCC(=O)N1CCCC1 |  |  | > 1000 | > 1000 |  |
| CC[C@H](C)[C@H](N)C(=O)NC1CCCC1 | > 1000 | > 100 | > 100 | > 1000 |  |
| CC[C@H](C)[C@H](N)C(=O)N1CCCCC1 | 67 | 59 |  |  |  |
| N[C@@H](Cc1c[nH]cn1)C(=O)N1CCCC1 | 23.1 | 1.2 | > 100 | > 500 |  |
| NCCCC[C@H](N)C(=O)N1CCCc2ccccc21 | > 1000 | 393 | > 100 | 312 |  |
| CC[C@H](C)[C@H](N)C(=O)N1CCC(N=[N+]=[N-])C1 (stereo partly specified) | 107 | 43 |  |  |  |
| N[C@@H](CC(=O)O)C(=O)N1CCCC1 |  |  |  | > 1000 |  |
| NCCCC[C@H](N)C(=O)N1CCCC1 | 39 | 9.9 |  |  |  |
| CC[C@H](C)[C@H](N)C(=O)N1CCC(F)C1 (stereo partly specified) | 3.5 | 111 |  |  |  |
| CCCC[C@H](N)C(=O)N1CCCC1 | 15 | 60 |  |  |  |
| N[C@@H](CCCCNC(=O)OCc1ccccc1)C(=O)N1CCCc2ccccc21 | > 1000 | 390 | > 100 | > 500 |  |
| N#C[C@@H]1CCCN1C(=O)[C@@H](N)CCCCNC(=O)OCc1ccccc1 | 0.035 | 0.84 |  |  |  |
| [N-]=[N+]=NC1CCN(C(=O)[C@@H](N)CCCCN)C1 (stereo partly specified) |  | 4.9 |  |  |  |
| N[C@@H](CCCCNC(=O)OCc1ccccc1)C(=O)N1CCSC1 | 3.7 | 1.02 |  |  |  |
| CC(C)[C@H](N)C(=O)N1CSC[C@H]1B(O)O |  | 0.086 |  |  |  |
| CC[C@H](C)[C@H](N)C(=O)N1CC=CCC1 | 52 | 52 | > 50 |  |  |

Other lines, results leading:

| IC50 [1] [µM] | IC50 [2] [µM] | IC50 [3] [µM] | IC50 [4] [µM] | Ki [2] [nM] | SMILES |
| --- | --- | --- | --- | --- | --- |
| 98 | 230 |  |  |  | C[C@@H](O)[C@H](N)C(=O)N1CCCC1 |
| 94 | 30 |  |  |  | CC[C@H](C)[C@H](N)C(=O)N1CCC(Cl)C1 (stereo partly specified) |
| 374 | 228 | > 100 | 612 |  | CC[C@H](C)[C@H](N)C(=O)N1CCCCCC1 |
| 190 | 65 |  | > 500 |  | N[C@@H](CO)C(=O)N1CCCC1 |
| 2.2 | 0.31 |  |  |  | N#C[C@@H]1C[C@H](N=[N+]=[N-])CN1C(=O)[C@@H](N)CCCCN |
| 0.53 | 0.35 |  |  |  | N#C[C@@H]1C[C@H](N=[N+]=[N-])CN1C(=O)[C@@H](N)CCCCNC(=O)OCc1ccccc1 |
| 93 | 299 | > 100 | 130 |  | CC[C@H](C)[C@H](N)C(=O)N1CCC(O)C1 (stereo partly specified) |
|  | 0.068 |  |  |  | N#C[C@@H]1C[C@H](N=[N+]=[N-])CN1C(=O)[C@@H](N)CCCCN(c1ccc2ccccc2c1)c1ccc2ccccc2c1 |
| 16.8 | 0.86 |  |  |  | N=C(NCCC[C@H](NC(=O)OCc1ccccc1)C(=O)N1CCCC1)NC(=O)OCc1ccccc1 |
| 43.5 | 15.7 |  |  |  | N[C@@H](Cc1ccc(O)cc1)C(=O)N1CCCC1 |
|  | < 0.0005 | 76.6 |  | 0.082 | N[C@@H](CCNCc1ccc(Cl)cc1)C(=O)N1CCCCC1 |
| 15 | 288 |  |  |  | CC[C@H](C)[C@H](N)C(=O)N1CC=CC1 |
| 188 | 152 |  | > 500 |  | NC(=O)C[C@H](N)C(=O)N1CCCC1 |
| 21 | 79 |  | 115 |  | N[C@@H](Cc1ccccc1)C(=O)N1CCCC1 |
|  | 0.577 |  |  |  | N#C[C@@H]1CCCN1C(=O)[C@@H](N)CCCCN |
| 2.5 | 0.025 |  |  |  | N#C[C@@H]1C[C@H](N=[N+]=[N-])CN1C(=O)[C@@H](N)CCCCN(c1cccc2ccccc12)c1cccc2ccccc12 |
| 24 | 122 |  |  |  | CC(C)C[C@H](N)C(=O)N1CCCC1 |
| 9.7 | 3.7 |  |  |  | N[C@@H](CCCNC(=O)OCc1ccccc1)C(=O)N1CCCC1 |
